According to publication PMC3973950, “Synthesis of 5-arylidine amino-1,3,4-thiadiazol-2-[(N-substituted benzyol)]sulphonamides endowed with potent antioxidants and anticancer activity induces growth inhibition in HEK293, BT474 and NCI-H226 cells” (Medicinal Chemistry Research, 2013):

System: BT474 (breast cancer cell line)
Experiment: In vitro cytotoxicity by MTT assay, BT474
Type: cell-based
Details: Homo sapiens, BT-474, 0.005 μM, 72 h, read-out: % cytotoxicity (100 − % cell survival) of BT474 cell line
Experimental: (§1) The cancer cell line cultures of HEK 293 ([…]), BT474 (breast cancer cell line) and NCI-H226 (lung cancer) were obtained from Pasteur Institute of India, Coonoor, India, and were cultured in RPMI-1640 and 10 % heat-[…] New born calf serum with antibiotics [penicillin ([…]), streptomycin (100 μg/mL) and amphotericin B (25 μg/mL)]. The cells were maintained at 37 °C in a humidified atmosphere with 5 % CO2 and were subcultured twice a week.
(§2) The monolayer cell culture (100 μL) was trypsinized, and the cell count was adjusted to […] using medium containing 10 % new born calf serum. To each well of the 96-well microtitre plate, the diluted cell suspension (approximately 10,000 cells) (0.1 mL) was added and kept for 24 h in incubator at 37 °C in 5 % CO2 atmosphere for cell monolayer formation. After 24 h, when a partial monolayer was formed at the bottom of the well, the supernatant was flicked off, the monolayer was washed once, and different drugs, i.e. synthesized compounds (100 μL), were added to the cells in microtitre plates. The plates were then incubated at 37 °C for 3 days in 5 % CO2 atmosphere, and microscopic examination was carried out and observations recorded every 24 h. After 72 h, the sample solution in the wells was flicked off; MTT dye ([…]) was added to each well; plates were gently shaken and incubated for 4 h at 37 °C in 5 % CO2 incubator. The supernatant was removed and propanol (50 μL) was added; the plates were gently shaken to solubilize the formed formazan. The absorbance was measured using a microplate reader at a wavelength of 490 nm (Edmondson et al., [1988]; Prasad et al., [2005]; Chiruvella et al., [2008]; Chang et al., [2007]).

Q: For CC(=O)Nc1ccc(S(=O)(=O)Nc2nnc(S(=O)(=O)NC(=O)c3ccccc3O)s2)cc1 [Compound 6d], which cytotoxicity at 0.005 µM is on record?
A: 26.3%

Same assay, conditions: Homo sapiens, BT-474, 0.015 μM, 72 h, read-out: % cytotoxicity (100 − % cell survival) of BT474 cell line

Q: For CC(=O)Nc1ccc(S(=O)(=O)Nc2nnc(S(=O)(=O)NC(=O)c3ccccc3O)s2)cc1 [Compound 6d], which cytotoxicity at 0.015 µM is on record?
A: 27.7%

Same assay, conditions: Homo sapiens, BT-474, 0.045 μM, 72 h, read-out: % cytotoxicity (100 − % cell survival) of BT474 cell line

Q: With CC(=O)Nc1ccc(S(=O)(=O)Nc2nnc(S(=O)(=O)NC(=O)c3ccccc3O)s2)cc1 [Compound 6d] as the compound, how does the cytotoxicity at 0.045 µM read?
A: 28.9%

Same assay, conditions: Homo sapiens, BT-474, 0.13 μM, 72 h, read-out: % cytotoxicity (100 − % cell survival) of BT474 cell line

Q: For CC(=O)Nc1ccc(S(=O)(=O)Nc2nnc(S(=O)(=O)NC(=O)c3ccccc3O)s2)cc1 [Compound 6d], which cytotoxicity at 0.13 µM is on record?
A: 29.4%

Same assay, conditions: Homo sapiens, BT-474, 0.41 μM, 72 h, read-out: % cytotoxicity (100 − % cell survival) of BT474 cell line

Q: For CC(=O)Nc1ccc(S(=O)(=O)Nc2nnc(S(=O)(=O)NC(=O)c3ccccc3O)s2)cc1 [Compound 6d], which cytotoxicity at 0.41 µM is on record?
A: 30.6%

Same assay, conditions: Homo sapiens, BT-474, 1.23 μM, 72 h, read-out: % cytotoxicity (100 − % cell survival) of BT474 cell line

Q: With CC(=O)Nc1ccc(S(=O)(=O)Nc2nnc(S(=O)(=O)NC(=O)c3ccccc3O)s2)cc1 [Compound 6d] as the compound, how does the cytotoxicity at 1.23 µM read?
A: 31%

Same assay, conditions: Homo sapiens, BT-474, 3.7 μM, 72 h, read-out: % cytotoxicity (100 − % cell survival) of BT474 cell line

Q: With CC(=O)Nc1ccc(S(=O)(=O)Nc2nnc(S(=O)(=O)NC(=O)c3ccccc3O)s2)cc1 [Compound 6d] as the compound, how does the cytotoxicity at 3.7 µM read?
A: 32.1%

Same assay, conditions: Homo sapiens, BT-474, 11.11 μM, 72 h, read-out: % cytotoxicity (100 − % cell survival) of BT474 cell line

Q: For CC(=O)Nc1ccc(S(=O)(=O)Nc2nnc(S(=O)(=O)NC(=O)c3ccccc3O)s2)cc1 [Compound 6d], which cytotoxicity at 11.11 µM is on record?
A: 32.9%

Same assay, conditions: Homo sapiens, BT-474, 33.33 μM, 72 h, read-out: % cytotoxicity (100 − % cell survival) of BT474 cell line

Q: For CC(=O)Nc1ccc(S(=O)(=O)Nc2nnc(S(=O)(=O)NC(=O)c3ccccc3O)s2)cc1 [Compound 6d], which cytotoxicity at 33.33 µM is on record?
A: 33.3%

Same assay, conditions: Homo sapiens, BT-474, 100 μM, 72 h, read-out: % cytotoxicity (100 − % cell survival) of BT474 cell line

Q: With CC(=O)Nc1ccc(S(=O)(=O)Nc2nnc(S(=O)(=O)NC(=O)c3ccccc3O)s2)cc1 [Compound 6d] as the compound, how does the cytotoxicity at 100 µM read?
A: 33.9%

System: NCI-H226 (lung cancer cell line)
Experiment: In vitro cytotoxicity by MTT assay, NCI-H226
Type: cell-based
Details: Homo sapiens, NCI-H226, 0.005 μM, 72 h, read-out: % Cytotoxicity (100 − % cell survival) of NCI-H226 cell line
Experimental: as §1, §2

Q: Which cytotoxicity at 0.005 µM does the source give for CC(=O)Nc1ccc(S(=O)(=O)Nc2nnc(S(=O)(=O)NC(=O)c3ccccc3O)s2)cc1 [Compound 6d] here?
A: 35.5%

Same assay, conditions: Homo sapiens, NCI-H226, 0.045 μM, 72 h, read-out: % Cytotoxicity (100 − % cell survival) of NCI-H226 cell line

Q: With CC(=O)Nc1ccc(S(=O)(=O)Nc2nnc(S(=O)(=O)NC(=O)c3ccccc3O)s2)cc1 [Compound 6d] as the compound, how does the cytotoxicity at 0.045 µM read?
A: 37%

Same assay, conditions: Homo sapiens, NCI-H226, 0.13 μM, 72 h, read-out: % Cytotoxicity (100 − % cell survival) of NCI-H226 cell line

Q: Which cytotoxicity at 0.13 µM does the source give for CC(=O)Nc1ccc(S(=O)(=O)Nc2nnc(S(=O)(=O)NC(=O)c3ccccc3O)s2)cc1 [Compound 6d] here?
A: 39.1%

Same assay, conditions: Homo sapiens, NCI-H226, 0.41 μM, 72 h, read-out: % Cytotoxicity (100 − % cell survival) of NCI-H226 cell line

Q: Which cytotoxicity at 0.41 µM does the source give for CC(=O)Nc1ccc(S(=O)(=O)Nc2nnc(S(=O)(=O)NC(=O)c3ccccc3O)s2)cc1 [Compound 6d] here?
A: 41.2%

Same assay, conditions: Homo sapiens, NCI-H226, 1.23 μM, 72 h, read-out: % Cytotoxicity (100 − % cell survival) of NCI-H226 cell line

Q: For CC(=O)Nc1ccc(S(=O)(=O)Nc2nnc(S(=O)(=O)NC(=O)c3ccccc3O)s2)cc1 [Compound 6d], which cytotoxicity at 1.23 µM is on record?
A: 42%

Same assay, conditions: Homo sapiens, NCI-H226, 3.7 μM, 72 h, read-out: % Cytotoxicity (100 − % cell survival) of NCI-H226 cell line

Q: With CC(=O)Nc1ccc(S(=O)(=O)Nc2nnc(S(=O)(=O)NC(=O)c3ccccc3O)s2)cc1 [Compound 6d] as the compound, how does the cytotoxicity at 3.7 µM read?
A: 43.4%

Same assay, conditions: Homo sapiens, NCI-H226, 11.11 μM, 72 h, read-out: % Cytotoxicity (100 − % cell survival) of NCI-H226 cell line

Q: With CC(=O)Nc1ccc(S(=O)(=O)Nc2nnc(S(=O)(=O)NC(=O)c3ccccc3O)s2)cc1 [Compound 6d] as the compound, how does the cytotoxicity at 11.11 µM read?
A: 45.3%

Same assay, conditions: Homo sapiens, NCI-H226, 33.33 μM, 72 h, read-out: % Cytotoxicity (100 − % cell survival) of NCI-H226 cell line

Q: For CC(=O)Nc1ccc(S(=O)(=O)Nc2nnc(S(=O)(=O)NC(=O)c3ccccc3O)s2)cc1 [Compound 6d], which cytotoxicity at 33.33 µM is on record?
A: 47.3%

Same assay, conditions: Homo sapiens, NCI-H226, 100 μM, 72 h, read-out: % Cytotoxicity (100 − % cell survival) of NCI-H226 cell line

Q: With CC(=O)Nc1ccc(S(=O)(=O)Nc2nnc(S(=O)(=O)NC(=O)c3ccccc3O)s2)cc1 [Compound 6d] as the compound, how does the cytotoxicity at 100 µM read?
A: 49.1%

System: not listed separately
Experiment: In vitro cytotoxicity by MTT assay, NCI-H226
Type: cell-based
Details: human, NCI-H226 lung cancer cells, 0.015 μM, read-out: % Cytotoxicity (100 − % cell survival) of NCI-H226 cell line
Experimental: as §1, §2

Q: Which cytotoxicity at 72 h, 0.015 µM does the source give for CC(=O)Nc1ccc(S(=O)(=O)Nc2nnc(S(=O)(=O)NC(=O)c3ccccc3O)s2)cc1 [Compound 6d] here?
A: 36.4%

System: not listed separately
Experiment: In vitro cytotoxicity by MTT assay, HEK 293
Type: cell-based, human
Details: human, HEK 293 cells, 0.005 μM, read-out: % cytotoxicity (100 − % cell survival) of HEK 293 cell line
Experimental: as §1, §2

Q: For CC(=O)Nc1ccc(S(=O)(=O)Nc2nnc(S(=O)(=O)NC(=O)c3ccccc3O)s2)cc1 [Compound 6d], which cytotoxicity at 72 h, 0.005 µM is on record?
A: 33.3%

Same assay, conditions: human, HEK 293 cells, 0.015 μM, read-out: % cytotoxicity (100 − % cell survival) of HEK 293 cell line

Q: With CC(=O)Nc1ccc(S(=O)(=O)Nc2nnc(S(=O)(=O)NC(=O)c3ccccc3O)s2)cc1 [Compound 6d] as the compound, how does the cytotoxicity at 72 h, 0.015 µM read?
A: 34.8%

Same assay, conditions: human, HEK 293 cells, 0.045 μM, read-out: % cytotoxicity (100 − % cell survival) of HEK 293 cell line

Q: With CC(=O)Nc1ccc(S(=O)(=O)Nc2nnc(S(=O)(=O)NC(=O)c3ccccc3O)s2)cc1 [Compound 6d] as the compound, how does the cytotoxicity at 72 h, 0.045 µM read?
A: 35.1%

Same assay, conditions: human, HEK 293 cells, 0.13 μM, read-out: % cytotoxicity (100 − % cell survival) of HEK 293 cell line

Q: With CC(=O)Nc1ccc(S(=O)(=O)Nc2nnc(S(=O)(=O)NC(=O)c3ccccc3O)s2)cc1 [Compound 6d] as the compound, how does the cytotoxicity at 72 h, 0.13 µM read?
A: 35.9%

Same assay, conditions: human, HEK 293 cells, 0.41 μM, read-out: % cytotoxicity (100 − % cell survival) of HEK 293 cell line

Q: Which cytotoxicity at 72 h, 0.41 µM does the source give for CC(=O)Nc1ccc(S(=O)(=O)Nc2nnc(S(=O)(=O)NC(=O)c3ccccc3O)s2)cc1 [Compound 6d] here?
A: 36.7%

Same assay, conditions: human, HEK 293 cells, 1.23 μM, read-out: % cytotoxicity (100 − % cell survival) of HEK 293 cell line

Q: Which cytotoxicity at 72 h, 1.23 µM does the source give for CC(=O)Nc1ccc(S(=O)(=O)Nc2nnc(S(=O)(=O)NC(=O)c3ccccc3O)s2)cc1 [Compound 6d] here?
A: 37.2%

Same assay, conditions: human, HEK 293 cells, 3.7 μM, read-out: % cytotoxicity (100 − % cell survival) of HEK 293 cell line

Q: For CC(=O)Nc1ccc(S(=O)(=O)Nc2nnc(S(=O)(=O)NC(=O)c3ccccc3O)s2)cc1 [Compound 6d], which cytotoxicity at 72 h, 3.7 µM is on record?
A: 38.4%

Same assay, conditions: human, HEK 293 cells, 11.11 μM, read-out: % cytotoxicity (100 − % cell survival) of HEK 293 cell line

Q: Which cytotoxicity at 72 h, 11.11 µM does the source give for CC(=O)Nc1ccc(S(=O)(=O)Nc2nnc(S(=O)(=O)NC(=O)c3ccccc3O)s2)cc1 [Compound 6d] here?
A: 39.3%

Same assay, conditions: human, HEK 293 cells, 33.33 μM, read-out: % cytotoxicity (100 − % cell survival) of HEK 293 cell line

Q: With CC(=O)Nc1ccc(S(=O)(=O)Nc2nnc(S(=O)(=O)NC(=O)c3ccccc3O)s2)cc1 [Compound 6d] as the compound, how does the cytotoxicity at 72 h, 33.33 µM read?
A: 40.7%

Same assay, conditions: human, HEK 293 cells, 100 μM, read-out: % cytotoxicity (100 − % cell survival) of HEK 293 cell line

Q: With CC(=O)Nc1ccc(S(=O)(=O)Nc2nnc(S(=O)(=O)NC(=O)c3ccccc3O)s2)cc1 [Compound 6d] as the compound, how does the cytotoxicity at 72 h, 100 µM read?
A: 41.3%
